The text below walks through data of the supplement of paper PMC10307832.

What all share (experiment): relative viability (nuclei count vs DMSO), 5 days (fraction); higher = more cells survive
Compound in experiment [1]: CC1CC(=O)N(C2=CN=C(N=C2N1C3CCCC3)NC4=C(C=C(C=C4)C(=O)NC5CCN(CC5)C)OC)C [NPK76-II-72-1] + O=C(CCCCCCC(=O)Nc1ccccc1)NO [Vorinostat] (partner 1 µM)
The gist of the method: (§1)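 The day after seeding in 1536-well plates, lung cancer cell lines were treated by pin tool with a single drug, or with a fixed anchor-drug dose together with five library-drug doses (not always all listed) in √10 steps. After 5 days, a combined fix-and-stain solution (final 0.05% Triton X-100, 1% formaldehyde, 1 ug/ml Hoechst) was added. Nuclei counted on 4× images gave relative viability as treated counts over vehicle counts, reported as the median of duplicate plates.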

Compound in the experiment “BI-2536 + Vorinostat”: CC[C@@H]1C(=O)N(C)c2cnc(Nc3ccc(C(=O)NC4CCN(C)CC4)cc3OC)nc2N1C1CCCC1 [BI-2536] + O=C(CCCCCCC(=O)Nc1ccccc1)NO [Vorinostat] (partner 1 µM)
The gist of the method: as §1

Compound in the experiment “BI-2536 + Decitabine”: CC[C@@H]1C(=O)N(C)c2cnc(Nc3ccc(C(=O)NC4CCN(C)CC4)cc3OC)nc2N1C1CCCC1 [BI-2536] + Nc1ncn([C@H]2C[C@H](O)[C@@H](CO)O2)c(=O)n1 [Decitabine] (partner 2 µM)
Put shortly: as §1

Compound in the experiment “BI-2536 + Dasatinib”: CC[C@@H]1C(=O)N(C)c2cnc(Nc3ccc(C(=O)NC4CCN(C)CC4)cc3OC)nc2N1C1CCCC1 [BI-2536] + Cc1nc(Nc2ncc(C(=O)Nc3c(C)cccc3Cl)s2)cc(N2CCN(CCO)CC2)n1 [Dasatinib] (partner 0.075 µM)
The gist of the method:
as §1

For the cell line NCI-H2405, the relative viability in experiment [1] (first compound 0.01 µM) amounted to 0.949; in experiment [1] (first compound 0.03162 µM) it was 0.791; in experiment [1] (first compound 0.1 µM), 1.04; in experiment [1] (first compound 0.3162 µM) it was 1.07; in experiment [1] (first compound 1 µM) it was 1.03; with BI-2536 + Vorinostat (first compound 0.01 µM) it was 0.981. For the same cell line, the relative viability with BI-2536 + Vorinostat (first compound 0.03162 µM) amounted to 0.608; with BI-2536 + Vorinostat (first compound 0.1 µM), 0.35; with BI-2536 + Vorinostat (first compound 0.3162 µM) it was 0.278; in the experiment with BI-2536 + Vorinostat (first compound 1 µM), 0.337; with BI-2536 + Decitabine (first compound 0.01 µM), 0.721; in the experiment with BI-2536 + Decitabine (first compound 0.03162 µM), 0.662. In addition, the relative viability with BI-2536 + Decitabine (first compound 0.1 µM) worked out at 0.387; in the experiment with BI-2536 + Decitabine (first compound 0.3162 µM), 0.307; in the experiment with BI-2536 + Decitabine (first compound 1 µM), 0.392; with BI-2536 + Dasatinib (first compound 0.01 µM) it was 0.19; with BI-2536 + Dasatinib (first compound 0.03162 µM), 0.214; with BI-2536 + Dasatinib (first compound 0.1 µM) it was 0.178. The relative viability came to 0.102 in the experiment with BI-2536 + Dasatinib (first compound 0.3162 µM) and 0.177 with BI-2536 + Dasatinib (first compound 1 µM).

For NCI-H322M, the relative viability stood at 0.886 in experiment [1] (first compound 0.01 µM); 0.808 in experiment [1] (first compound 0.03162 µM); 0.861 in experiment [1] (first compound 0.1 µM); 1.01 in experiment [1] (first compound 0.3162 µM); 0.913 in experiment [1] (first compound 1 µM); 0.926 with BI-2536 + Vorinostat (first compound 0.01 µM). For the same cell line, the relative viability with BI-2536 + Vorinostat (first compound 0.03162 µM) was 0.829; with BI-2536 + Vorinostat (first compound 0.1 µM), 0.641; with BI-2536 + Vorinostat (first compound 0.3162 µM), 0.45; with BI-2536 + Vorinostat (first compound 1 µM) it was 0.422; in the experiment with BI-2536 + Decitabine (first compound 0.01 µM), 0.69; with BI-2536 + Decitabine (first compound 0.03162 µM), 0.64. For the same cell line, the relative viability with BI-2536 + Decitabine (first compound 0.1 µM) is 0.649; with BI-2536 + Decitabine (first compound 0.3162 µM), 0.462; in the experiment with BI-2536 + Decitabine (first compound 1 µM) it was 0.451; with BI-2536 + Dasatinib (first compound 0.01 µM), 0.286; in the experiment with BI-2536 + Dasatinib (first compound 0.03162 µM), 0.248; with BI-2536 + Dasatinib (first compound 0.1 µM), 0.259. The figures for the relative viability with BI-2536 + Dasatinib (first compound 0.3162 µM) and with BI-2536 + Dasatinib (first compound 1 µM) were 0.361 and 0.288, respectively.

For NCI-H2170, the relative viability in experiment [1] (first compound 0.01 µM) stood at 0.731; in experiment [1] (first compound 0.03162 µM), 0.855; in experiment [1] (first compound 0.1 µM), 0.823; in experiment [1] (first compound 0.3162 µM), 0.38; in experiment [1] (first compound 1 µM), 0.941; in the experiment with BI-2536 + Vorinostat (first compound 0.01 µM) it was 0.787. Besides, the relative viability worked out at 0.736 in the experiment with BI-2536 + Vorinostat (first compound 0.03162 µM); 0.159 with BI-2536 + Vorinostat (first compound 0.1 µM); 0.144 in the experiment with BI-2536 + Vorinostat (first compound 0.3162 µM); 0.175 with BI-2536 + Vorinostat (first compound 1 µM); 0.466 with BI-2536 + Decitabine (first compound 0.01 µM); 0.471 with BI-2536 + Decitabine (first compound 0.03162 µM). The relative viability was 0.431 in the experiment with BI-2536 + Decitabine (first compound 0.1 µM); 0.167 with BI-2536 + Decitabine (first compound 0.3162 µM); 0.181 with BI-2536 + Decitabine (first compound 1 µM); 0.626 in the experiment with BI-2536 + Dasatinib (first compound 0.01 µM); 0.597 with BI-2536 + Dasatinib (first compound 0.03162 µM); 0.356 with BI-2536 + Dasatinib (first compound 0.1 µM). Moreover, the relative viability with BI-2536 + Dasatinib (first compound 0.3162 µM) stood at 0.16; in the experiment with BI-2536 + Dasatinib (first compound 1 µM) it was 0.179.

Regarding SW 900, the relative viability in experiment [1] (first compound 0.01 µM) was 0.515; in experiment [1] (first compound 0.03162 µM) it was 0.624; in experiment [1] (first compound 0.1 µM), 0.515; in experiment [1] (first compound 0.3162 µM), 0.433; in experiment [1] (first compound 1 µM) it was 0.559; with BI-2536 + Vorinostat (first compound 0.01 µM), 0.445. In addition, the relative viability with BI-2536 + Vorinostat (first compound 0.03162 µM) turned out to be 0.598; with BI-2536 + Vorinostat (first compound 0.1 µM), 0.481; with BI-2536 + Vorinostat (first compound 0.3162 µM), 0.159; in the experiment with BI-2536 + Vorinostat (first compound 1 µM), 0.218; with BI-2536 + Decitabine (first compound 0.01 µM) it was 0.433; with BI-2536 + Decitabine (first compound 0.03162 µM) it was 0.458. Besides, the relative viability with BI-2536 + Decitabine (first compound 0.1 µM) was found to be 0.384; with BI-2536 + Decitabine (first compound 0.3162 µM), 0.28; with BI-2536 + Decitabine (first compound 1 µM), 0.203; with BI-2536 + Dasatinib (first compound 0.01 µM), 0.629; with BI-2536 + Dasatinib (first compound 0.03162 µM), 0.596; in the experiment with BI-2536 + Dasatinib (first compound 0.1 µM) it was 0.391. Further, the relative viability with BI-2536 + Dasatinib (first compound 0.3162 µM) came out at 0.181; in the experiment with BI-2536 + Dasatinib (first compound 1 µM), 0.139.

As for NCI-H1395, the relative viability in experiment [1] (first compound 0.01 µM) worked out at 0.711; in experiment [1] (first compound 0.03162 µM), 0.67; in experiment [1] (first compound 0.1 µM), 0.642; in experiment [1] (first compound 0.3162 µM), 0.721; in experiment [1] (first compound 1 µM), 0.84; in the experiment with BI-2536 + Vorinostat (first compound 0.01 µM), 0.669. For the same cell line, the relative viability with BI-2536 + Vorinostat (first compound 0.03162 µM) is 0.431; with BI-2536 + Vorinostat (first compound 0.1 µM), 0.285; with BI-2536 + Vorinostat (first compound 0.3162 µM) it was 0.311; in the experiment with BI-2536 + Vorinostat (first compound 1 µM), 0.356; in the experiment with BI-2536 + Decitabine (first compound 0.01 µM) it was 0.628; in the experiment with BI-2536 + Decitabine (first compound 0.03162 µM), 0.509. Moreover, the relative viability in the experiment with BI-2536 + Decitabine (first compound 0.1 µM) was 0.366; in the experiment with BI-2536 + Decitabine (first compound 0.3162 µM), 0.337; in the experiment with BI-2536 + Decitabine (first compound 1 µM) it was 0.345; with BI-2536 + Dasatinib (first compound 0.01 µM), 0.413; with BI-2536 + Dasatinib (first compound 0.03162 µM), 0.398; with BI-2536 + Dasatinib (first compound 0.1 µM) it was 0.315. In addition, the relative viability in the experiment with BI-2536 + Dasatinib (first compound 0.3162 µM) was found to be 0.297; with BI-2536 + Dasatinib (first compound 1 µM), 0.328.

Take NCI-H358: the relative viability in experiment [1] (first compound 0.01 µM) was found to be 0.674; in experiment [1] (first compound 0.03162 µM) it was 0.647; in experiment [1] (first compound 0.1 µM), 0.754; in experiment [1] (first compound 1 µM) it was 0.818; in the experiment with BI-2536 + Vorinostat (first compound 0.01 µM), 0.507; with BI-2536 + Vorinostat (first compound 0.03162 µM), 0.138. Also, the relative viability worked out at 0.0931 with BI-2536 + Vorinostat (first compound 0.1 µM); 0.0884 with BI-2536 + Vorinostat (first compound 0.3162 µM); 0.0847 with BI-2536 + Vorinostat (first compound 1 µM); 0.204 with BI-2536 + Decitabine (first compound 0.01 µM); 0.187 with BI-2536 + Decitabine (first compound 0.03162 µM); 0.0935 with BI-2536 + Decitabine (first compound 0.1 µM). Also, the relative viability amounted to 0.0948 in the experiment with BI-2536 + Decitabine (first compound 0.3162 µM); 0.112 in the experiment with BI-2536 + Decitabine (first compound 1 µM); 0.157 with BI-2536 + Dasatinib (first compound 0.01 µM); 0.171 in the experiment with BI-2536 + Dasatinib (first compound 0.03162 µM); 0.0774 with BI-2536 + Dasatinib (first compound 0.1 µM); 0.0602 with BI-2536 + Dasatinib (first compound 0.3162 µM). Also, the relative viability with BI-2536 + Dasatinib (first compound 1 µM) stood at 0.0816.

Turning to NCI-H838, the relative viability in experiment [1] (first compound 0.01 µM) came out at 0.69; in experiment [1] (first compound 0.03162 µM) it was 0.73; in experiment [1] (first compound 0.1 µM), 0.717; in experiment [1] (first compound 0.3162 µM), 0.684; in experiment [1] (first compound 1 µM), 0.672; in the experiment with BI-2536 + Vorinostat (first compound 0.01 µM) it was 0.766. Moreover, the relative viability was 0.668 with BI-2536 + Vorinostat (first compound 0.03162 µM); 0.371 with BI-2536 + Vorinostat (first compound 0.1 µM); 0.152 with BI-2536 + Vorinostat (first compound 0.3162 µM); 0.141 with BI-2536 + Vorinostat (first compound 1 µM); 0.445 in the experiment with BI-2536 + Decitabine (first compound 0.01 µM); 0.413 in the experiment with BI-2536 + Decitabine (first compound 0.03162 µM). Further, the relative viability with BI-2536 + Decitabine (first compound 0.1 µM) stood at 0.185; with BI-2536 + Decitabine (first compound 0.3162 µM), 0.151; with BI-2536 + Decitabine (first compound 1 µM) it was 0.142; with BI-2536 + Dasatinib (first compound 0.01 µM), 0.281; with BI-2536 + Dasatinib (first compound 0.03162 µM) it was 0.291; with BI-2536 + Dasatinib (first compound 0.1 µM), 0.235. In addition, the relative viability was determined as 0.134 in the experiment with BI-2536 + Dasatinib (first compound 0.3162 µM) and 0.164 with BI-2536 + Dasatinib (first compound 1 µM).
